Assay results from ChEMBL document CHEMBL1201862, “PubChem BioAssay data set” (2004).
Active and inactive are the calls of the source.

Legend:
[1] = target: Luciferin 4-monooxygenase (Photinus pyralis, UniProt P08659); assay: firefly luciferase enzyme inhibitors, dose response, biochemical, luminescence (AID 1891)
[2] = Luminescence Cell-Based Dose Confirmation HTS to Identify Inhibitors of Platelet Dense Granule Release. [Related pubchem assays: 1663 (Primary HTS), 1678 (Summary of Project)]; format: functional
[3] = target: T1, Calpain-2 catalytic subunit (Sus scrofa, UniProt P43367); assay: pig calpain II inhibitor potency, dose response, biochemical, fluorogenic peptide substrate (AID 1420); format: functional
T1 sequence (P43367 whole entry): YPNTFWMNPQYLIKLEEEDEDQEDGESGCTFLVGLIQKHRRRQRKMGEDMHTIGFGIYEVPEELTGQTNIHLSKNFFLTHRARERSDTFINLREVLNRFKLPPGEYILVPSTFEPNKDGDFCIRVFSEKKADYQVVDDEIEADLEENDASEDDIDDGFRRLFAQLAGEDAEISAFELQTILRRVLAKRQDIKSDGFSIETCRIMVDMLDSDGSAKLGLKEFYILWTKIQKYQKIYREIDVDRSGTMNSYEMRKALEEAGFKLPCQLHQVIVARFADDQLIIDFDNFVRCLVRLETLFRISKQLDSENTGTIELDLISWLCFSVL

[4] = target: T2, Polyadenylate-binding protein 1 (Homo sapiens, UniProt P11940); assay: PABP1 MLLE–PAM2 binding inhibitor potency, dose response, biochemical, fluorescence polarization, FITC-PAM2 peptide (AID 602259); format: functional; settings: read-out: IC50_Mean
T2 sequence (P11940 whole entry): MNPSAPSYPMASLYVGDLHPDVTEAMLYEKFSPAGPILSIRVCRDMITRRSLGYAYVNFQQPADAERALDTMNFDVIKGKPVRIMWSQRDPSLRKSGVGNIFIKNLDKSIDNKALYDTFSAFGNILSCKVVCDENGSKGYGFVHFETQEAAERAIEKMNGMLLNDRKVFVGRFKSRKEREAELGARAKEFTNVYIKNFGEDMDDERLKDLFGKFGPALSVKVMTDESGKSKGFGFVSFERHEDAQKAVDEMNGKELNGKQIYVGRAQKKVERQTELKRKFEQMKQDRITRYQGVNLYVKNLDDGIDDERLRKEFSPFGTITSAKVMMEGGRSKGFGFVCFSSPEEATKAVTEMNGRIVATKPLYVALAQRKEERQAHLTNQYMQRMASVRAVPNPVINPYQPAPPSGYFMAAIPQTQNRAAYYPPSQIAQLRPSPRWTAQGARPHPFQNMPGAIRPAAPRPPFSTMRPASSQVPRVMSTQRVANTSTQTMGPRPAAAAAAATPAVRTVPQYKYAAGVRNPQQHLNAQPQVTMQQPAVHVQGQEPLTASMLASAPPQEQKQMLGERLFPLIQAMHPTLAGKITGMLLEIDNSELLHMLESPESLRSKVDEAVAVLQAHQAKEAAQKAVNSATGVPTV

[5] = target: T2, Polyadenylate-binding protein 1; assay: PABP1 MLLE–PAM2 interaction inhibitors, dose response, miRNA deadenylation inhibitor project, biochemical, fluorescence polarization, Cy5-PAM2 peptide, secondary (AID 602260); format: functional; settings: read-out: IC50_Mean
Cytochrome P450 2C9 = Cytochrome P450 2C9 (Homo sapiens, UniProt P11712)
Cytochrome P450 2C9, sequence (P11712 whole entry): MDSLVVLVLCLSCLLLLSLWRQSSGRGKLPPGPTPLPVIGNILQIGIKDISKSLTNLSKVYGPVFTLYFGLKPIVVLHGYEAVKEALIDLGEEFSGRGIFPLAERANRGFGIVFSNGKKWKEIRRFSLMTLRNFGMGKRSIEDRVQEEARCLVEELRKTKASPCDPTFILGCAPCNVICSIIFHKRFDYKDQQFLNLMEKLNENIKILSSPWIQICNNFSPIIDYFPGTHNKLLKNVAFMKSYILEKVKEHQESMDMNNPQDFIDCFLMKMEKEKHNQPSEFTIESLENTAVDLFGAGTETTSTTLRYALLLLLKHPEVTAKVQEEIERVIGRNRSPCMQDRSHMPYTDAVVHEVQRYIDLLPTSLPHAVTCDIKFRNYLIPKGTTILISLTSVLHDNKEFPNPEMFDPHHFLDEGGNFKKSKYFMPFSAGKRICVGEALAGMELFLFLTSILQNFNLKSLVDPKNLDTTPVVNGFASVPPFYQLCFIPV

Cytochrome P450 2D6 = Cytochrome P450 2D6 (Homo sapiens, UniProt P10635);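 also: CYP2D6 member of a cytochrome P450 panel assay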
Cytochrome P450 2D6, sequence (P10635 whole entry): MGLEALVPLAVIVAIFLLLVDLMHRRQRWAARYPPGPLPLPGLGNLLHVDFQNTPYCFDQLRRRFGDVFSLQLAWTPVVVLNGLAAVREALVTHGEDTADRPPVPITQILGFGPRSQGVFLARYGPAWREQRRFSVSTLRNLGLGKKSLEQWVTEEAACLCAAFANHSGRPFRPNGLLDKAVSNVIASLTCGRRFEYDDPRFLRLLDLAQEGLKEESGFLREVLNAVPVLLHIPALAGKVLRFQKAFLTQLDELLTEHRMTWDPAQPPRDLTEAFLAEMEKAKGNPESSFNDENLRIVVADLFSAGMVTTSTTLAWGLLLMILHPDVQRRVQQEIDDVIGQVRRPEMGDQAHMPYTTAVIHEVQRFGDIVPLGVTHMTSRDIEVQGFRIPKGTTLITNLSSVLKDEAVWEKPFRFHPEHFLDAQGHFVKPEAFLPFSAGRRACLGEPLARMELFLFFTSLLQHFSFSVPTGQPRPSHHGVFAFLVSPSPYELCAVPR

H4 = assay: Luminescence Cell-Based Dose Response HTS to Identify Activators of 5'UTR Stem-Loop Driven Prion Protein mRNA Translation in H4 Neuroglioblastoma Cells. [Related pubchem assays: 1829 (Project Summary), 1814 (Primary HTS)]; format: functional; settings: Homo sapiens
[6] = Luminescence Cell-Based Dose Response HTS to Identify Activators of Luciferase Translation or Activity in H4 […] Cells. [Related pubchem assays: 1829 (Project Summary), 1814 (Primary HTS)]; format: functional
[7] = Luminescence Cell-Based Dose Confirmation HTS to Identify Activators of 5'UTR Stem-Loop Driven Alpha-Synuclein mRNA Translation in H4 Neuroglioblastoma Cells. [Related pubchem assays: 1829 (Project Summary), 1814 (Primary HTS)]; format: functional
BJ [8] = assay: cytotoxicity toward BJ-TERT-LT-ST fibroblasts, dose response, cell-based, RAS-independent, luminescence (AID 1935); format: functional; settings: Homo sapiens;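 also: BJ fibroblasts immortalized with TERT plus LT and ST oncogenes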
BJ [9] = assay: cytotoxicity toward BJ-TERT fibroblasts, dose response, cell-based, RAS-independent, luminescence (AID 1933); format: functional; settings: Homo sapiens
BJ [10] = assay: cells; format: functional, cell-based; settings: Homo sapiens
[11] = cytotoxicity toward DRD oncogenic fibroblasts, dose response, cell-based, non-viral oncogenic, luminescence (AID 1934); format: functional; settings: Homo sapiens
[12] = inhibitors of HIV Env-driven cell fusion, dose response, cherry-pick (AID 652057); format: functional, cell-based
Fatty acid synthase = Fatty acid synthase (Homo sapiens, UniProt P49327); assay: FAS thioesterase domain inhibitors, dose response, biochemical, kinetic fluorescence intensity (AID 624326); format: functional;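 also: rate of fluorescence rise from hydrolysis of a fluorogenic O-methyl fluorescein ester substrate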
Fatty acid synthase, sequence (P49327 whole entry, the tested form may be a part): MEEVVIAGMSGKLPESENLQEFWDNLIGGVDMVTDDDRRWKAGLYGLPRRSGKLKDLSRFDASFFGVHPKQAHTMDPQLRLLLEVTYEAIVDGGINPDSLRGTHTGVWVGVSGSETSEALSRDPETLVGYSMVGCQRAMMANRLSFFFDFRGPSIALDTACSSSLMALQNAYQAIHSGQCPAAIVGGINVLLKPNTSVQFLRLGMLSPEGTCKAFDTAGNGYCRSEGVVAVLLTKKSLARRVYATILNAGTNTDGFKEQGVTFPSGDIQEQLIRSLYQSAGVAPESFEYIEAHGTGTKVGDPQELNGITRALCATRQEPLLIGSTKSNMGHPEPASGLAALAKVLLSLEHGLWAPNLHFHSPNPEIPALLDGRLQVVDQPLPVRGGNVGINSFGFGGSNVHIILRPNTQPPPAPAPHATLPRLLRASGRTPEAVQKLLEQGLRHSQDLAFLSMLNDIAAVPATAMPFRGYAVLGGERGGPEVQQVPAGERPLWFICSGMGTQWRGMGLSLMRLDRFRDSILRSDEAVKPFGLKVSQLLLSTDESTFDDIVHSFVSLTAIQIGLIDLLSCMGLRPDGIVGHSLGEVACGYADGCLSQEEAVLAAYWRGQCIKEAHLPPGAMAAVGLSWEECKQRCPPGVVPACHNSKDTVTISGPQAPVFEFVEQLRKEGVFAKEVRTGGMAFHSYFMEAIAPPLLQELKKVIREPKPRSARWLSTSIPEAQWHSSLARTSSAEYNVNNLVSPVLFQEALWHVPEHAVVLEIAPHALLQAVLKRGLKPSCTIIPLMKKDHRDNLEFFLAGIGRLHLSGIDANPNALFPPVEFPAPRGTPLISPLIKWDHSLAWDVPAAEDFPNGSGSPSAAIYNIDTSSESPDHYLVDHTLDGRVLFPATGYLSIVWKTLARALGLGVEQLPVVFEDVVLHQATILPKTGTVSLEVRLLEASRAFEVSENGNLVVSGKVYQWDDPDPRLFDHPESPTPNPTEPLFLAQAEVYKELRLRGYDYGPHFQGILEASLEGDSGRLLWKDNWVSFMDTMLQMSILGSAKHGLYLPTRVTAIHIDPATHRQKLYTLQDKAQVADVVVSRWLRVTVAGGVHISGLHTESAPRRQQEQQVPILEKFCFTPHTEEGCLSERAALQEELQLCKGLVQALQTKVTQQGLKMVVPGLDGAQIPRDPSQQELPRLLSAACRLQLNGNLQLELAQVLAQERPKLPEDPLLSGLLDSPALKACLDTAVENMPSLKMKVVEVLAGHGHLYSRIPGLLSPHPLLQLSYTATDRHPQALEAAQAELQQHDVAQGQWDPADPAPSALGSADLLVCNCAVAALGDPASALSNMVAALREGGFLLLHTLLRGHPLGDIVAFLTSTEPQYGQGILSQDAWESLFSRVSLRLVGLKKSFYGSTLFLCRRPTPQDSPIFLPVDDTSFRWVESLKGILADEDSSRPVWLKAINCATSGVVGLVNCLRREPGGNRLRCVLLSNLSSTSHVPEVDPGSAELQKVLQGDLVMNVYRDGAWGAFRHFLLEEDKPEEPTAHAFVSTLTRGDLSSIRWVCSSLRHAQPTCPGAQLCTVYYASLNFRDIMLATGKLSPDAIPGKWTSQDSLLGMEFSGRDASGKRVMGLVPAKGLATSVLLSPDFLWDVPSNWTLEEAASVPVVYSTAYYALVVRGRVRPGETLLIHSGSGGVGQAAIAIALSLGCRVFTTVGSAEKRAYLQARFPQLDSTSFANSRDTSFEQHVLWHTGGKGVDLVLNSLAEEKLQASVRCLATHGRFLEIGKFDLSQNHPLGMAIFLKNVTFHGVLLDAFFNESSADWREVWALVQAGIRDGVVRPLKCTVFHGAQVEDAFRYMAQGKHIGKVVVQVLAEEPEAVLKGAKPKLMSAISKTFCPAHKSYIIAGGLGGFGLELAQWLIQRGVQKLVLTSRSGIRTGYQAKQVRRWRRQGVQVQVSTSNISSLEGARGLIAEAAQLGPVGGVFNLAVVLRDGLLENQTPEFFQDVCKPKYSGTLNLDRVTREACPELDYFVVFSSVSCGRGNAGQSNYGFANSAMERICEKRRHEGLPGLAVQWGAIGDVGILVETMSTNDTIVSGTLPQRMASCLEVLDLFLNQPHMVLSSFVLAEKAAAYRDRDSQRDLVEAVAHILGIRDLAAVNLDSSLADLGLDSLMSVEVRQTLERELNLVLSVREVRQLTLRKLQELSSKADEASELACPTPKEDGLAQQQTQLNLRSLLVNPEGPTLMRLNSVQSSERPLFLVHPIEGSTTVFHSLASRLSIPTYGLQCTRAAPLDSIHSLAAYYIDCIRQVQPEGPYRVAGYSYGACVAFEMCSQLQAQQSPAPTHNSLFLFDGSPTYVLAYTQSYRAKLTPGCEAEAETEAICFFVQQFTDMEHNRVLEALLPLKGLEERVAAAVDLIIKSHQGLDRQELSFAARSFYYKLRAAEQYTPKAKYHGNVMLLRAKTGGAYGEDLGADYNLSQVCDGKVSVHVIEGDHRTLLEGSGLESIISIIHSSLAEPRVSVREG

[13] = inhibitors of clade B AD8 Env fusion, dose response, cell-based, cherry-pick (AID 652062); format: functional;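 also: luciferase signal from cell-cell fusion driven by HIV-1 clade B AD8 Env; potency is for inhibitors of fusion seen as a drop in luminescence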
[14] = ZM109 Env clade C HIV-1 fusion inhibitors, dose response, HeLa effector, CEM target cells, luciferase, cherry-pick (AID 652058); format: functional, cell-based

Luciferin 4-monooxygenase, sequence (P08659 whole entry): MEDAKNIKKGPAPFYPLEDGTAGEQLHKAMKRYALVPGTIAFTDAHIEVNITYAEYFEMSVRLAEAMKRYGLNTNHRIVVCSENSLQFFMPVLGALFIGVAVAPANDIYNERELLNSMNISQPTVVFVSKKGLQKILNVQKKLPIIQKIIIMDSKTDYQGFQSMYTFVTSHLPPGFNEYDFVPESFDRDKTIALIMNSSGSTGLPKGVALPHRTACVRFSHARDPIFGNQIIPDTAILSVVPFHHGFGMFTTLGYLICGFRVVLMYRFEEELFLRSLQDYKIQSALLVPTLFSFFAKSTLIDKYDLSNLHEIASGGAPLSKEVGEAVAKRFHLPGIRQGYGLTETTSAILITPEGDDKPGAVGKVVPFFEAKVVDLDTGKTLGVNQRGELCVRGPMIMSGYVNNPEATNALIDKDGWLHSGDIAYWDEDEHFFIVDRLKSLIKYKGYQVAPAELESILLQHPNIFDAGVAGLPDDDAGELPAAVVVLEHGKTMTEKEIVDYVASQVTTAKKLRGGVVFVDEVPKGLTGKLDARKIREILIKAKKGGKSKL

## CCCc1ccc(Oc2cc(N3CCOCC3)nc(-c3ccccc3)n2)cc1
[1]
  EC50: > 112 µM (not active)
[2]
  EC50: > 112 µM (not active)

## CCn1c(Cc2cccn2C)nnc1SCC(=O)c1ccc(C)cc1
[1]
  EC50: > 112 µM (not active)
[2]
  EC50: > 112 µM (not active)

## COc1ccc(/C=C(/NC(=O)c2ccco2)C(=O)N2CCCCCC2)cc1OC
[1]
  EC50: > 112 µM (not active)
[2]
  EC50: > 112 µM (not active)

## Cc1ncc(CN2CCC(N3CCC(C(=O)N4CCCC4)CC3)CC2)s1
[1]
  EC50: > 112 µM (not active)
[2]
  EC50: > 112 µM (not active)

## CCc1ccc(NC(=O)c2noc(C(C)C)c2[N+](=O)[O-])cc1
[3]
  IC50: 6.83 µM (not active)

## COc1ccc(C(=O)CN2CCN(S(=O)(=O)c3cccc([N+](=O)[O-])c3)CC2)cc1OC
[4]
  IC50: > 66 µM (inactive)
[5]
  IC50: > 66 µM (inactive)

## CCC(C)C(NC(=O)c1ccc(Cl)cc1)C(=O)Nc1cccnc1 (configuration not stated)
[3]
  IC50: 7.69 µM (not active)

## COc1ccc(-c2csc(CCn3nc(C)cc3C)n2)cc1OC
[1]
  EC50: > 112 µM (not active)
[2]
  EC50: > 112 µM (not active)

## CCC(=O)NCCc1nc2ccccc2n1Cc1ccc(C)cc1
[1]
  EC50: > 112 µM (not active)
[2]
  EC50: > 112 µM (not active)

## COC(=O)C1=C(NC(=O)c2ccc(C)c(C)c2)CCS1
Cytochrome P450 2C9
  AC50: 14.1 µM (inconclusive)
Cytochrome P450 2D6
  AC50: 31.6 µM (inconclusive)
[4]
  IC50: > 66 µM (inactive)
H4
  EC50: 19 µM (active)
[6]
  EC50: 13.3 µM (active)
[5]
  IC50: > 66 µM (inactive)
[7]
  EC50: > 120 µM (not active)

## O=C(Nc1cccc2ccccc12)/C(Cl)=C/c1ccccc1
[3]
  IC50: 8.93 µM (not active)

## O=C(CCCCCN1C(=O)c2ccccc2C1=O)Nc1ccc(F)cc1
[3]
  IC50: 11.1 µM (not active)

## O=C(Cc1ccc(N2CCNC2=O)cc1)N1CCCC(Nc2ccc(F)c(F)c2)C1 (configuration not stated)
BJ [8]
  EC50: 4.14 µM (active)
BJ [9]
  EC50: 9.17 µM (inconclusive)
BJ [10]
  EC50: 3.98 µM (active)
[11]
  EC50: 14.9 µM (inconclusive)

## O=C1OC(c2cccc([N+](=O)[O-])c2)C2(CCCC2)C(=O)C12CCCCC2 (configuration not stated)
[3]
  IC50: > 50 µM (not active)

## CC1(C(=O)NCc2ccc3c(c2)OCO3)CCN1Cc1csc2ccccc12 (configuration not stated)
[12]
  AC50: 43 µM (active)

## CNS(=O)(=O)c1ccc2c(c1)C(=O)c1cc(S(=O)(=O)NC)ccc1CC2
Fatty acid synthase
  IC50: 0.865 µM (active)

## C[C@@H]1CN([C@H](C)CO)S(=O)(=O)c2ccc(-c3cccc(F)c3)cc2O[C@@H]1CN(C)S(=O)(=O)c1ccccc1
[13]
  AC50: 31.6 µM (active)
[12]
  AC50: 3.28 µM (active)
[14]
  AC50: 2.78 µM (active)

## C[C@H]1CN([C@@H](C)CO)C(=O)Cc2cc(N(C)C)ccc2O[C@H]1CN(C)Cc1ccc(Cl)c(Cl)c1
[12]
  AC50: 40.2 µM (active)

## C[C@H]1CN([C@@H](C)CO)S(=O)(=O)c2ccc(Br)cc2O[C@H]1CN(C)S(=O)(=O)c1ccc(F)cc1
[13]
  AC50: 29.7 µM (active)
[12]
  AC50: 2.84 µM (active)
[14]
  AC50: 3.04 µM (active)

## CO[C@H]1CN(C)C(=O)c2ccc(NC(=O)C3CCC3)cc2OC[C@@H](C)N(CC2CCCCC2)C[C@@H]1C
[13]
  AC50: 19.9 µM (active)
[12]
  AC50: 10.1 µM (active)
[14]
  AC50: 3.18 µM (active)
